Reference: ChEMBL document CHEMBL1201862, “PubChem BioAssay data set” (2004)
Several values for one entry are separate records, joined by “and”; a condition that tells them apart may be missing. Equal values may be shown once.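 Results reflect a 48-hour exposure of cells in 96-well plates to compound at five concentrations. The concentration for 50% growth inhibition is given as GI50.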 Activity calls are given as the source filed them. Cut-off read from the data, not from the text of the source: active = GI50 up to about 1.1 µM and inactive = higher.

Columns and labels:
Assay in all cases: inhibition of tumour cell growth, NCI panel, 48 h
A498 = test system: A498
ACHN = test system: ACHN
CAKI-1 = test system: CAKI-1
CCRF-CEM = test system: CCRF-CEM
HL-60 = test system: HL-60
HT-29 = test system: HT-29
Hs-578T = test system: Hs-578T
IGROV-1 = test system: IGROV-1
K562 = test system: K562
LOX IMVI = test system: LOX IMVI
MCF7 = test system: MCF7
NCI/ADR-RES = test system: NCI/ADR-RES
OVCAR-8 = test system: OVCAR-8
RXF 393 = test system: RXF 393
SF-539 = test system: SF-539
SK-MEL-28 = test system: SK-MEL-28
UO-31 = test system: UO-31
EKVX = test system: EKVX

CCC1NC(=O)C(NC(=O)c2ncccc2O)C(C)OC(=O)C(c2ccccc2)NC(=O)C2CC(=O)CCN2C(=O)C(Cc2ccccc2)N(C)C(=O)C2CCCN2C1=O (stereo unspecified)
GI50 (A498): > 100 µM (inactive)
GI50 (ACHN): > 100 µM (inactive)
GI50 (CAKI-1): > 100 µM (inactive)
GI50 (CCRF-CEM): 41.5 µM (inactive)
GI50 (HL-60): 52.6 µM (inactive)
GI50 (HT-29): > 100 µM (inactive)
GI50 (Hs-578T): > 100 µM (inactive)
GI50 (IGROV-1): > 100 µM (inactive)
GI50 (K562): > 100 µM (inactive)
GI50 (LOX IMVI): > 100 µM (inactive)
GI50 (MCF7): > 100 µM (inactive)
GI50 (NCI/ADR-RES): > 100 µM (inactive)
GI50 (OVCAR-8): > 100 µM (inactive)
GI50 (RXF 393): > 100 µM (inactive)
GI50 (SF-539): > 100 µM (inactive)
GI50 (SK-MEL-28): > 100 µM (inactive)
GI50 (UO-31): > 100 µM (inactive)

O=c1cc(O)c2c(O)cc(O)cc2o1
GI50 (A498): > 100 µM (inactive)
GI50 (ACHN): > 100 µM (inactive)
GI50 (CAKI-1): > 100 µM (inactive)
GI50 (CCRF-CEM): > 100 µM (inactive)
GI50 (EKVX): > 100 µM (inactive)
GI50 (HL-60): > 100 µM (inactive)
GI50 (HT-29): > 100 µM (inactive)
GI50 (Hs-578T): > 100 µM (inactive)
GI50 (IGROV-1): > 100 µM (inactive)
GI50 (K562): > 100 µM (inactive)
GI50 (LOX IMVI): > 100 µM (inactive)
GI50 (MCF7): > 100 µM (inactive)
GI50 (NCI/ADR-RES): > 100 µM (inactive)
GI50 (OVCAR-8): > 100 µM (inactive)
GI50 (RXF 393): > 100 µM (inactive)
GI50 (SF-539): > 100 µM (inactive)
GI50 (SK-MEL-28): > 100 µM (inactive)

O=[N+]([O-])c1ccc(-c2ccc([C@H]3CC(c4cc(F)c(Cl)cc4Cl)=NN3)o2)cc1
GI50 (A498): 35.5 µM (inactive)
GI50 (ACHN): 32.1 µM (inactive)
GI50 (CAKI-1): 25.9 µM (inactive)
GI50 (CCRF-CEM): 1.06 µM (active)
GI50 (EKVX): > 100 µM (inactive)
GI50 (HL-60): 1.06 µM (active)
GI50 (HT-29): 37.4 µM (inactive)
GI50 (Hs-578T): > 100 µM (inactive)
GI50 (IGROV-1): 38.7 µM (inactive)
GI50 (K562): 22.9 µM (inactive)
GI50 (LOX IMVI): 3.63 µM (inactive)
GI50 (MCF7): 16.7 µM (inactive)
GI50 (NCI/ADR-RES): 21.6 µM (inactive)
GI50 (OVCAR-8): 10.8 µM (inactive)
GI50 (RXF 393): 39.2 µM (inactive)
GI50 (SF-539): 5.38 µM (inactive)
GI50 (UO-31): 69.3 µM (inactive)

CC(=O)OCC1OC(N2C(C)=C(C(C)=O)C(c3ccco3)C(C#N)=C2S)C(OC(C)=O)C(OC(C)=O)C1OC(C)=O (stereo unspecified)
GI50 (A498): > 100 µM (inactive)
GI50 (ACHN): > 100 µM (inactive)
GI50 (CAKI-1): > 100 µM (inactive)
GI50 (CCRF-CEM): > 100 µM (inactive)
GI50 (HL-60): > 100 µM (inactive)
GI50 (HT-29): > 100 µM (inactive)
GI50 (Hs-578T): > 100 µM (inactive)
GI50 (IGROV-1): > 100 µM (inactive)
GI50 (K562): > 100 µM (inactive)
GI50 (LOX IMVI): > 100 µM (inactive)
GI50 (MCF7): > 100 µM (inactive)
GI50 (NCI/ADR-RES): > 100 µM (inactive)
GI50 (OVCAR-8): > 100 µM (inactive)
GI50 (RXF 393): > 100 µM (inactive)
GI50 (SF-539): > 100 µM (inactive)
GI50 (SK-MEL-28): > 100 µM (inactive)
GI50 (UO-31): 81.1 µM (inactive)

Nc1c2c(nc3ccccc13)CCCc1ccccc1-2
GI50 (A498): 8.43 µM (inactive)
GI50 (ACHN): 10.3 µM (inactive)
GI50 (CAKI-1): 15.9 µM (inactive)
GI50 (EKVX): 13.2 µM (inactive)
GI50 (HL-60): 5.9 µM (inactive)
GI50 (HT-29): 4.53 µM (inactive)
GI50 (Hs-578T): 22.6 µM (inactive)
GI50 (IGROV-1): 9.46 µM (inactive)
GI50 (K562): 5.7 µM (inactive)
GI50 (LOX IMVI): 8.69 µM (inactive)
GI50 (MCF7): 13.1 µM (inactive)
GI50 (NCI/ADR-RES): 20.3 µM (inactive)
GI50 (OVCAR-8): 14.1 µM (inactive)
GI50 (RXF 393): 11.4 µM (inactive)
GI50 (SF-539): 8.83 µM (inactive)
GI50 (SK-MEL-28): 9.75 µM (inactive)
GI50 (UO-31): 10.5 µM (inactive)

CC(=O)c1c(=O)n(-c2ccc(C)cc2)c(O)c2c(N)n[nH]c12
GI50 (A498): > 100 µM (inactive)
GI50 (CAKI-1): > 100 µM (inactive)
GI50 (CCRF-CEM): > 100 µM (inactive)
GI50 (EKVX): > 100 µM (inactive)
GI50 (HL-60): > 100 µM (inactive)
GI50 (HT-29): > 100 µM (inactive)
GI50 (Hs-578T): > 100 µM (inactive)
GI50 (IGROV-1): > 100 µM (inactive)
GI50 (K562): > 100 µM (inactive)
GI50 (LOX IMVI): > 100 µM (inactive)
GI50 (MCF7): > 100 µM (inactive)
GI50 (NCI/ADR-RES): > 100 µM (inactive)
GI50 (OVCAR-8): > 100 µM (inactive)
GI50 (RXF 393): > 100 µM (inactive)
GI50 (SF-539): > 100 µM (inactive)
GI50 (SK-MEL-28): > 100 µM (inactive)
GI50 (UO-31): 60 µM (inactive)

CCOC(=O)CC(=O)Nc1cccc2nc[nH]c12
GI50 (A498): > 100 µM (inactive)
GI50 (ACHN): > 100 µM (inactive)
GI50 (CAKI-1): > 100 µM (inactive)
GI50 (CCRF-CEM): > 100 µM (inactive)
GI50 (EKVX): > 100 µM (inactive)
GI50 (HL-60): > 100 µM (inactive)
GI50 (HT-29): > 100 µM (inactive)
GI50 (Hs-578T): 0.267 µM (active)
GI50 (IGROV-1): > 100 µM (inactive)
GI50 (K562): > 100 µM (inactive)
GI50 (MCF7): > 100 µM (inactive)
GI50 (NCI/ADR-RES): > 100 µM (inactive)
GI50 (OVCAR-8): > 100 µM (inactive)
GI50 (RXF 393): > 100 µM (inactive)
GI50 (SF-539): > 100 µM (inactive)
GI50 (SK-MEL-28): > 100 µM (inactive)
GI50 (UO-31): > 100 µM (inactive)

CC(=O)OC1COC(n2c(N)c(C#N)c(-c3ccccc3)c(C#N)c2=S)C(OC(C)=O)C1OC(C)=O (stereo unspecified)
GI50 (A498): 24.8 µM (inactive) and 33.2 µM (inactive)
GI50 (ACHN): 45.7 µM (inactive) and 71.4 µM (inactive)
GI50 (CAKI-1): 39.4 µM (inactive) and 40.7 µM (inactive)
GI50 (CCRF-CEM): 26.1 µM (inactive) and 35.2 µM (inactive)
GI50 (EKVX): 31.9 µM (inactive) and 29.9 µM (inactive)
GI50 (HL-60): 23.2 µM (inactive)
GI50 (HT-29): 35.9 µM (inactive) and 43.1 µM (inactive)
GI50 (Hs-578T): 45.3 µM (inactive) and 37.4 µM (inactive)
GI50 (IGROV-1): > 100 µM (inactive) and 68.5 µM (inactive)
GI50 (LOX IMVI): 25.2 µM (inactive) and 27.6 µM (inactive)
GI50 (MCF7): 34.4 µM (inactive) and 29.9 µM (inactive)
GI50 (NCI/ADR-RES): > 100 µM (inactive) and 71.6 µM (inactive)
GI50 (OVCAR-8): 31.6 µM (inactive) and 56.8 µM (inactive)
GI50 (RXF 393): 34.4 µM (inactive) and 33 µM (inactive)
GI50 (SF-539): 40.2 µM (inactive) and 32.4 µM (inactive)
GI50 (SK-MEL-28): 55.7 µM (inactive) and 36.6 µM (inactive)
GI50 (UO-31): 23.1 µM (inactive) and 36.5 µM (inactive)
